# Target: T1, glutathione S-transferase (GST)-linked full-length human Syk protein (Homo sapiens, UniProt P43405)
# T1 construct: glutathione S-transferase (GST)-linked full-length human Syk protein; purchased Carna Biosciences; host or cells: Baculovirus expression system
# Assay: Syk enzyme assay
# Assay type: biochemical
# Conditions: 0.83 nM Syk, time-resolved fluorescence; read-out: IC50 of Syk-inhibitory activity
# Method in brief: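 Phosphotyrosine on a biotin-peptide substrate (0.5 μM) was read by time-resolved fluorescence at 615 and 665 nm with Eu-anti-pTyr antibody and APC-streptavidin after 1 h EDTA stop.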
row,SMILES,IC50 [nM]
1,"C[C@H](N)[C@H](Nc1nc(Nc2ccc(F)cc2)c(C(N)=O)cc1F)C1CCC1 [Example 2-60, 6-(((1R,2S)-2-amino-1-cyclobutylpropyl)amino)-5-fluoro-2-((4-fluorophenyl)amino)nicotinamide]",10 to 50
2,"CC[C@H](N)[C@H](Nc1nc(Nc2ccnc(OCCOC)c2)c(C(N)=O)cc1F)C1CC1 [Example 2-360, 6-(((1R,2S)-2-amino-1-cyclopropylbutyl)amino)-5-fluoro-2-((2-(2-methoxyethoxy)pyridin-4-yl)amino)nicotinamide]",10 to 50
3,"CN(C)c1nn(C)c2ccc(Nc3nc(N[C@@H](CN)Cc4ccccc4)c(F)cc3C(N)=O)cc12 [Example 2-421, (R)-6-((1-amino-3-phenylpropan-2-yl)amino)-2-((3-(dimethylamino)-1-methyl-1H-indazol-5-yl)amino)-5-fluoronicotinamide]",10 to 50
4,"CCOc1ncc(Nc2nc(N[C@H](C3CCC3)[C@H](C)N)c(F)cc2C(N)=O)cc1-n1cccn1 [Example 2-168, 6-(((1R,2S)-2-amino-1-cyclobutylpropyl)amino)-2-((6-ethoxy-5-(1H-pyrazol-1-yl)pyridin-3-yl)amino)-5-fluoronicotinamide]",10 to 50
5,"COCCn1nc(N(C)C)c2cc(Nc3nc(N[C@H](C4CCC4)[C@H](C)N)c(F)cc3C(N)=O)ccc21 [Example 2-506, 6-(((1R,2S)-2-amino-1-cyclobutylpropyl)amino)-2-((3-(dimethylamino)-1-(2-methoxyethyl)-1H-indazol-5-yl)amino)-5-fluoronicotinamide]",10 to 50
6,"Cc1ncc(Nc2nc(N[C@H](Cc3ccccc3)[C@H](C)N)c(F)cc2C(N)=O)cc1-n1nccn1 [Example 2-422, 6-(((2R,3S)-3-amino-1-phenylbutan-2-yl)amino)-5-fluoro-2-((6-methyl-5-(2H-1,2,3-triazol-2-yl)pyridin-3-yl)amino)nicotinamide]",10 to 50
7,"CCOc1ncc(Nc2nc(N[C@H](C3CCC3)[C@H](C)N)c(F)cc2C(N)=O)cc1-n1ccnn1 [Example 2-167, 6-(((1R,2S)-2-amino-1-cyclobutylpropyl)amino)-2-((6-ethoxy-5-(1H-1,2,3-triazol-1-yl)pyridin-3-yl)amino)-5-fluoronicotinamide]",10 to 50
8,"COCCNc1nn(C)c2ccc(Nc3nc(N[C@@H]4CCCC[C@@H]4N)c(F)cc3C(N)=O)cc12 [Example 2-462, 6-(((1R,2S)-2-aminocyclohexyl)amino)-5-fluoro-2-((3-((2-methoxyethyl)amino)-1-methyl-1H-indazol-5-yl)amino)nicotinamide]",10 to 50
9,"CC[C@@H](Nc1nc(Nc2ccc3c(c2)c(N(C)C)nn3CCOC)c(C(N)=O)cc1F)[C@H](C)N [Example 2-502, 6-(((2S,3R)-2-aminopentan-3-yl)amino)-2-((3-(dimethylamino)-1-(2-methoxyethyl)-1H-indazol-5-yl)amino)-5-fluoronicotinamide]",10 to 50
10,"COCCOc1ncc(Nc2nc(N[C@H](C3CCC3)[C@H](C)N)c(F)cc2C(N)=O)cc1-n1nccn1 [Example 2-165, 6-(((1R,2S)-2-amino-1-cyclobutylpropyl)amino)-5-fluoro-2-((6-(2-methoxyethoxy)-5-(2H-1,2,3-triazol-2-yl)pyridin-3-yl)amino)nicotinamide]",10 to 50
11,"NC(=O)c1cc(F)c(N[C@@H]2CCCC[C@@H]2N)nc1Nc1cnc(-n2ccnn2)c(F)c1 [Example 2-68, 6-(((1R,2S)-2-aminocyclohexyl)amino)-5-fluoro-2-((5-fluoro-6-(1H-1,2,3-triazol-1-yl)pyridin-3-yl)amino)nicotinamide]",10 to 50
12,"COCCn1ncc2cc(Nc3nc(N[C@H](c4ccc(F)c(F)c4)[C@H](C)N)c(F)cc3C(N)=O)ccc21 [Example 2-554, 6-(((1R,2S)-2-amino-1-(3,4-difluorophenyl)propyl)amino)-5-fluoro-2-((1-(2-methoxyethyl)-1H-indazol-5-yl)amino)nicotinamide]",< 10
13,"COc1cc(Nc2nc(N[C@H](c3ccccc3)[C@H](C)N)c(F)cc2C(N)=O)cc(OC)n1 [Example 2-356, 6-(((1R,2S)-2-amino-1-phenylpropyl)amino)-2-((2,6-dimethoxypyridin-4-yl)amino)-5-fluoronicotinamide]",10 to 50
14,"CCC[C@@H](Nc1nc(Nc2cnc3c(c2)c(N(C)C)nn3C)c(C(N)=O)cc1F)[C@H](C)N [Example 2-289, 6-(((2S,3R)-2-aminohexan-3-yl)amino)-2-((3-(dimethylamino)-1-methyl-1H-pyrazolo[3,4-b]pyridin-5-yl)amino)-5-fluoronicotinamide]",< 10
15,"CC[C@H](N)[C@@H](C)Nc1nc(Nc2cnc(C)c(C)c2)c(C(N)=O)cc1F [Example 2-35, 6-(((2R,3S)-3-aminopentan-2-yl)amino)-2-((5,6-dimethylpyridin-3-yl)amino)-5-fluoronicotinamide]",10 to 50
16,"C[C@H](N)[C@H](Nc1nc(Nc2cnc(N3CCOCC3)c(F)c2)c(C(N)=O)cc1F)c1cccc(F)c1 [Example 2-451, 6-(((1R,2S)-2-amino-1-(3-fluorophenyl)propyl)amino)-5-fluoro-2-((5-fluoro-6-morpholinopyridin-3-yl)amino)nicotinamide]",< 10
17,"CC[C@H](N)[C@@H](CC)Nc1nc(Nc2cnc3c(c2)c(C)nn3C)c(C(N)=O)cc1F [Example 2-248, 6-(((3R,4S)-4-aminohexan-3-yl)amino)-2-((1,3-dimethyl-1H-pyrazolo[3,4-b]pyridin-5-yl)amino)-5-fluoronicotinamide]",50 to 100
18,"CCC[C@@H](Nc1nc(Nc2cnc(N3CCOCC3)c(F)c2)c(C(N)=O)cc1F)[C@H](C)N [Example 2-260, 6-(((2S,3R)-2-aminohexan-3-yl)amino)-5-fluoro-2-((5-fluoro-6-morpholinopyridin-3-yl)amino)nicotinamide]",10 to 50
19,"C[C@H](N)[C@H](Nc1nc(Nc2ccc3c(c2)c(N(C)C)nn3C)c(C(N)=O)cc1F)c1cccs1 [Example 2-510, 6-(((1S,2S)-2-amino-1-(thiophen-2-yl)propyl)amino)-2-((3-(dimethylamino)-1-methyl-1H-indazol-5-yl)amino)-5-fluoronicotinamide]",< 10

# Second part, the compound after the results:
row,IC50 [nM],SMILES
1,< 10,"COCCn1nc(OC(F)F)c2cc(Nc3nc(N[C@H](CC(C)C)[C@H](C)N)c(F)cc3C(N)=O)ccc21 [Example 2-177, 6-(((2S,3R)-2-amino-5-methylhexan-3-yl)amino)-2-((3-(difluoromethoxy)-1-(2-methoxyethyl)-1H-indazol-5-yl)amino)-5-fluoronicotinamide]"
2,< 10,"COCCn1ncc2c(Nc3nc(N[C@@H](CN)CC(C)C)c(F)cc3C(N)=O)cncc21 [Example 2-386, (R)-6-((1-amino-4-methylpentan-2-yl)amino)-5-fluoro-2-((1-(2-methoxyethyl)-1H-pyrazolo[3,4-c]pyridin-4-yl)amino)nicotinamide]"
3,< 10,"CC[C@@H](Nc1nc(Nc2ccc3[nH]nc(N(C)C)c3c2)c(C(N)=O)cc1F)[C@H](C)N [Example 2-493, 6-(((2S,3R)-2-aminopentan-3-yl)amino)-2-((3-(dimethylamino)-1H-indazol-5-yl)amino)-5-fluoronicotinamide]"
4,< 10,"CCn1ncc2c(Nc3nc(N[C@H](c4ccc(Cl)s4)[C@H](C)N)c(F)cc3C(N)=O)cccc21 [Example 2-512, 6-(((1S,2S)-2-amino-1-(5-chlorothiophen-2-yl)propyl)amino)-2-((1-ethyl-1H-indazol-4-yl)amino)-5-fluoronicotinamide]"
5,< 10,"C[C@H](N)[C@H](Nc1nc(Nc2ccc3c(c2)c(OC(F)F)nn3C)c(C(N)=O)cc1F)C1CC1 [Example 2-171, 6-(((1R,2S)-2-amino-1-cyclopropylpropyl)amino)-2-((3-(difluoromethoxy)-1-methyl-1H-indazol-5-yl)amino)-5-fluoronicotinamide]"
6,< 10,"Cc1nn(C)c2ncc(Nc3nc(N[C@H](CC(C)C)[C@H](C)N)c(F)cc3C(N)=O)cc12 [Example 2-245, 6-(((2S,3R)-2-amino-5-methylhexan-3-yl)amino)-2-((1,3-dimethyl-1H-pyrazolo[3,4-b]pyridin-5-yl)amino)-5-fluoronicotinamide]"
7,< 10,"CC(C)Oc1ccc(Nc2nc(N[C@@H]3CCCC[C@@H]3N)c(F)cc2C(N)=O)cc1 [Example 2-449, 6-(((1R,2S)-2-aminocyclohexyl)amino)-5-fluoro-2-((4-isopropoxyphenyl)amino) nicotinamide]"
8,< 10,"CC[C@H](N)[C@@H](C)Nc1nc(Nc2cc(F)cc3c2cnn3CC)c(C(N)=O)cc1F [Example 2-373, 6-(((2R,3S)-3-aminopentan-2-yl)amino)-2-((1-ethyl-6-fluoro-1H-indazol-4-yl)amino)-5-fluoronicotinamide]"
9,< 10,"CC(C)C[C@H](CN)Nc1nc(Nc2cncc3c2cnn3CC(F)F)c(C(N)=O)cc1F [Example 2-395, (R)-6-((1-amino-4-methylpentan-2-yl)amino)-2-((1-(2,2-difluoroethyl)-1H-pyrazolo[3,4-c]pyridin-4-yl)amino)-5-fluoronicotinamide]"
10,< 10,"COCCn1ncc2c(Nc3nc(N[C@H](CC(C)C)[C@H](C)N)c(F)cc3C(N)=O)cncc21 [Example 2-390, 6-(((2S,3R)-2-amino-5-methylhexan-3-yl)amino)-5-fluoro-2-((1-(2-methoxyethyl)-1H-pyrazolo[3,4-c]pyridin-4-yl)amino)nicotinamide]"
11,< 10,"COc1ncc(Nc2nc(N[C@H](c3ccccc3)[C@H](C)N)c(F)cc2C(N)=O)cc1-n1ccnn1 [Example 2-336, 6-(((1R,2S)-2-amino-1-phenylpropyl)amino)-5-fluoro-2-((6-methoxy-5-(1H-1,2,3-triazol-1-yl)pyridin-3-yl)amino)nicotinamide]"
12,< 10,"CNc1nn(C)c2ccc(Nc3nc(N[C@H](C4CC4)[C@H](C)N)c(F)cc3C(N)=O)cc12 [Example 2-498, 6-(((1R,2S)-2-amino-1-cyclopropylpropyl)amino)-5-fluoro-2-((1-methyl-3-(methylamino)-1H-indazol-5-yl)amino)nicotinamide]"

# — patent US9051310B2, “Nicotinamide derivative or salt thereof” (FUJIFILM Corporation, priority 2011, dated 2015)
